Data: paper PMC11060137, “A Phase I Study of KIN-3248, an Irreversible Small-molecule Pan-FGFR Inhibitor, in Patients with Advanced FGFR2/3-driven Solid Tumors” (Cancer Research Communications, 2024)
Where two headings read alike, the source gives them in different places.

Assays:
[1] = test system: patients with advanced solid tumors harboring FGFR2 and/or FGFR3 gene alterations
Description: The study was divided into two parts. […] The secondary objectives included antitumor activity in Part A, determination of pharmacokinetics and pharmacodynamics.
Dose level 1 was started at 5 mg oral daily, and patients were escalated on study to 50 mg daily. On the basis of ongoing efficacy, toxicity, and pharmacokinetic analysis, a planned amendment added additional cohorts up to 80 mg orally daily to define the MTD/RP2D. […] One cycle was 28 days of continuous dosing. Intrapatient dose escalation after safely tolerating two cycles was allowed if per protocol criteria were met. Patients continued therapy until evidence of disease progression, intolerance or unacceptable toxicity, withdrawal of consent, investigator decision, sponsor decision, or death.
Patients were evaluated with medical history, physical examinations, and clinical laboratory on days 1, 8, 15, and 22 of cycle 1; days 1 and 15 from cycle 2 through cycle 5; and day 1 of each subsequent cycle. […] Except for hyperphosphatemia, adverse events (AE) were graded according to the NCI-CTCAE (Common Terminology Criteria for Adverse Events) Version 5.0 at each study visit and for approximately 30 days following end of treatment.
The primary endpoints for the overall study, included: the incidence of DLTs, incidence of AEs, treatment-emergent AEs (TEAE), and treatment-related AEs (TRAE).

wild-type FGFR = test system: wild-type FGFR; design: method as in PMID 38267212; settings: cited from earlier work
[2] = test system: gatekeeper (V564F) resistance mutation; design: method as in PMID 38267212; settings: cited from earlier work
[3] = test system: molecular break (N549H) resistance mutation; design: method as in PMID 38267212; settings: cited from earlier work
[4] = test system: FGFR2/3-driven cholangiocarcinoma, gastric, and bladder cancer xenograft models; design: method as in PMID 38267212; settings: cited from earlier work

SMILES: C=CC(=O)N1C[C@@H](n2nc(C#Cc3c(F)cc4c(ncn4C4CC4)c3F)c(C(N)=O)c2NC)C[C@@H]1COC [KIN-3248]
- TEAE Anemia, n (%) ([1]; CTCAE (V5) Grade 3, N = 54): 2 (3.7%)
- TEAE Aspartate aminotransferase increased, n (%) ([1]; CTCAE (V5) Grade 3, N = 54): 2 (3.7%)
- TEAE Blood and lymphatic system disorders, n (%) ([1]; CTCAE (V5) Grade 3, N = 54): 3 (5.6%)
- TEAE Blood creatinine increased, n (%) ([1]; CTCAE (V5) Grade 3, N = 54): 0
- TEAE Constipation, n (%) ([1]; CTCAE (V5) Grade 3, N = 54): 0
- TEAE Decreased appetite, n (%) ([1]; CTCAE (V5) Grade 3, N = 54): 0
- TEAE Diarrhea, n (%) ([1]; CTCAE (V5) Grade 3, N = 54): 0
- TEAE Dry mouth, n (%) ([1]; CTCAE (V5) Grade 3, N = 54): 0
- TEAE Eye disorders, n (%) ([1]; CTCAE (V5) Grade 3, N = 54): 0
- TEAE Fatigue, n (%) ([1]; CTCAE (V5) Grade 3, N = 54): 0
- TEAE Gastrointestinal disorders, n (%) ([1]; CTCAE (V5) Grade 3, N = 54): 5 (9.3%)
- TEAE General disorders and administration site conditions, n (%) ([1]; CTCAE (V5) Grade 3, N = 54): 0
- TEAE Hypercalcemia, n (%) ([1]; CTCAE (V5) Grade 3, N = 54): 1 (1.9%)
- TEAE Hyperphosphatemia, n (%) ([1]; CTCAE (V5) Grade 3, N = 54): 8 (14.8%)
- TEAE Infections and infestations, n (%) ([1]; CTCAE (V5) Grade 3, N = 54): 4 (7.4%)
- TEAE Investigations, n (%) ([1]; CTCAE (V5) Grade 3, N = 54): 2 (3.7%)
- TEAE Metabolism and nutrition disorders, n (%) ([1]; CTCAE (V5) Grade 3, N = 54): 10 (18.5%)
- TEAE Musculoskeletal and connective tissue disorders, n (%) ([1]; CTCAE (V5) Grade 3, N = 54): 1 (1.9%)
- TEAE Nausea, n (%) ([1]; CTCAE (V5) Grade 3, N = 54): 0
- TEAE Nervous system disorders, n (%) ([1]; CTCAE (V5) Grade 3, N = 54): 2 (3.7%)
- TEAE Psychiatric disorders, n (%) ([1]; CTCAE (V5) Grade 3, N = 54): 0
- TEAE Respiratory, thoracic, and mediastinal disorders, n (%) ([1]; CTCAE (V5) Grade 3, N = 54): 1 (1.9%)
- TEAE Skin and subcutaneous tissue disorders, n (%) ([1]; CTCAE (V5) Grade 3, N = 54): 0
- TEAE Stomatitis, n (%) ([1]; CTCAE (V5) Grade 3, N = 54): 0
- TEAE Vascular disorders, n (%) ([1]; CTCAE (V5) Grade 3, N = 54): 3 (5.6%)
- Patient with any TEAE, n (%) ([1]; CTCAE (V5) Grade 4–5, N = 54): 7 (13.0%)
- TEAE Alanine aminotransferase increased, n (%) ([1]; CTCAE (V5) Grade 4–5, N = 54): 0
- TEAE Anemia, n (%) ([1]; CTCAE (V5) Grade 4–5, N = 54): 0
- TEAE Aspartate aminotransferase increased, n (%) ([1]; CTCAE (V5) Grade 4–5, N = 54): 0
- TEAE Blood and lymphatic system disorders, n (%) ([1]; CTCAE (V5) Grade 4–5, N = 54): 0
- TEAE Blood creatinine increased, n (%) ([1]; CTCAE (V5) Grade 4–5, N = 54): 0
- TEAE Constipation, n (%) ([1]; CTCAE (V5) Grade 4–5, N = 54): 0
- TEAE Decreased appetite, n (%) ([1]; CTCAE (V5) Grade 4–5, N = 54): 0
- TEAE Diarrhea, n (%) ([1]; CTCAE (V5) Grade 4–5, N = 54): 0
- TEAE Dry mouth, n (%) ([1]; CTCAE (V5) Grade 4–5, N = 54): 0
- TEAE Eye disorders, n (%) ([1]; CTCAE (V5) Grade 4–5, N = 54): 0
- TEAE Fatigue, n (%) ([1]; CTCAE (V5) Grade 4–5, N = 54): 0
- TEAE Gastrointestinal disorders, n (%) ([1]; CTCAE (V5) Grade 4–5, N = 54): 0
- TEAE General disorders and administration site conditions, n (%) ([1]; CTCAE (V5) Grade 4–5, N = 54): 1 (1.9%)
- TEAE Hypercalcemia, n (%) ([1]; CTCAE (V5) Grade 4–5, N = 54): 0
- TEAE Hyperphosphatemia, n (%) ([1]; CTCAE (V5) Grade 4–5, N = 54): 0
- TEAE Infections and infestations, n (%) ([1]; CTCAE (V5) Grade 4–5, N = 54): 2 (3.7%)
- TEAE Investigations, n (%) ([1]; CTCAE (V5) Grade 4–5, N = 54): 2 (3.7%)
- TEAE Metabolism and nutrition disorders, n (%) ([1]; CTCAE (V5) Grade 4–5, N = 54): 0
- TEAE Musculoskeletal and connective tissue disorders, n (%) ([1]; CTCAE (V5) Grade 4–5, N = 54): 0
- TEAE Nausea, n (%) ([1]; CTCAE (V5) Grade 4–5, N = 54): 0
- TEAE Nervous system disorders, n (%) ([1]; CTCAE (V5) Grade 4–5, N = 54): 1 (1.9%)
- TEAE Psychiatric disorders, n (%) ([1]; CTCAE (V5) Grade 4–5, N = 54): 0
- TEAE Respiratory, thoracic, and mediastinal disorders, n (%) ([1]; CTCAE (V5) Grade 4–5, N = 54): 1 (1.9%)
- TEAE Skin and subcutaneous tissue disorders, n (%) ([1]; CTCAE (V5) Grade 4–5, N = 54): 0
- TEAE Stomatitis, n (%) ([1]; CTCAE (V5) Grade 4–5, N = 54): 0
- TEAE Vascular disorders, n (%) ([1]; CTCAE (V5) Grade 4–5, N = 54): 0
- MTD ([1]; doses up to 50 mg orally daily): not reached
- Treatment-related deaths ([1]; in vivo): no treatment-related deaths
- Treatment-related grade 3 hyperphosphatasemia ([1]; only event reported in more than 1 patient): 14.8%
- TEAE deaths ([1]; three related to progressive disease, one to a cardiovascular accident): Four
- IC50 (wild-type FGFR): low nanomolar
- IC50 [2]: low nanomolar
- IC50 [3]: low nanomolar
- Tumor inhibition [4]: dose-dependent tumor inhibition
